Values quoted from earlier work as cited in patent publication US20110151017A1, “OPHTHALMIC SOLUTIONS WITH IMPROVED DISINFECTION PROFILES” (priority 2009, published 2011).

Conditions: aqueous solution, forming tetrahydroxyborate

OB(O)O [Boric acid]
Ka: 5.8e-10 mol/L
